Experimental data as given in patent US20040057926A1, “Modulation of the immune response through the manipulation of arginine levels” (LSU Medical Center, priority 2002, published 2004).

Columns and labels:
Jurkat cells = test: Co-culture in transwells of stimulated PM and Jurkat cells, CD3ζ expression; format: cell-based
Experimental: (§1) PM were cultured in 6 well plates in RPMI containing 150 μM L-Arg and stimulated with murine rIL-4 (50 U/ml) and murine rIL-13 (50 ng/ml), or murine rIFN-γ (100 U/ml) for 24 hours. Then 1×10^6 normal T-cells stimulated with anti-CD3 plus anti-CD28 or 1×10^6 Jurkat cells, were cultured in the top chamber of a transwell system having 0.4 μm pores (Falcon, Franklin lakes, N.J.). CD3ζ expression was measured in Jurkat cells or T lymphocytes at different time points. PM were detached using trypsin/EDTA and the expression of protein and RNA for CAT-2B, ASE I, ASE II and iNOS was tested by western blot and northern blot respectively. Cytoplasmic extracts from PM were used to test ASE activity. Supernatants from stimulated PM were used to measure NO production using the Griess reagent method (Molecular Probes, Eugene, Oreg.). In addition, the extra-cellular concentration of L-Arg was tested in supernatants by HPLC (Dr. Gu Yao Wu laboratory, University of Texas) as described previously. O'Quinn, P. R., D. A. Knabe, and G. Wu. 2002. Arginine catabolism in lactating porcine mammary tissue. J Anim Sci. 80:467-474.
Flow cytometry analysis was performed as previously described. Taheri, F., J. B. Ochoa, Z. Faghiri, K. Culotta, H. J. Park, M. S. Lan, A. H. Zea, and A. C. Ochoa. 2001. L-Arginine regulates the expression of the T-cell receptor zeta chain (CD3zeta) in Jurkat cells. Clin Cancer Res 7:958s-965s. Briefly, 5×10^5 Jurkat cells or T lymphocytes were washed once with Dulbecco phosphate-buffered saline 1× (D-PBS) and resuspended in 200 μL of D-PBS containing 1 μg of anti-CD3ε or isotype control. Cells were incubated for 15 min at 4° C., washed with D-PBS and resuspended in 200 μl D-PBS containing 500 μg/ml of digitonin plus 1 μg of anti-CD3ζ or 1 μg of isotypic control. Cells were incubated for 8 minutes after which they were washed and resuspended in 400 μl of D-PBS. Fluorescence acquisition and analysis were done using a Coulter-EPICS XL flow cytometer (Beckman-Coulter) with a 488 nm argon laser. The data were expressed as mean channel fluorescence intensity (MFI).

[1] = test system: peritoneal macrophages (PM); test: Extra-cellular L-Arg concentration in supernatants of peritoneal macrophages (HPLC); format: cell-based, mice; details: for extra-cellular L-Arg levels (mean of three experiments): L-Arg 2 mM, NOHA 100 μM, Nor-NOHA 50 μM
Experimental: Jurkat T-cells, a CD4^+ cell line (Clone E6-1) (ATCC, Manassas, Va.) and normal stimulated T-cells were used to test the effect of ASE I, ASE II and iNOS produced by PM on CD3ζ expression. Six-week old female C57BL/6 mice were used to isolate peritoneal macrophages (PM). Briefly, 3 ml of thioglycolate-brewer (Becton Dickinson, San Jose, Calif.) were injected into the peritoneal cavity of mice for 3 days. Mice were then sacrificed and PM isolated by washing the peritoneum with HBSS. After 2 days of culture in RPMI with 4% fetal bovine serum, unattached cells were washed off and attached cells were used in co-cultures with Jurkat or normal T-cells.
as §1

T lymphocytes = test: Co-culture in transwells of stimulated PM and stimulated normal T lymphocytes, CD3ζ expression; format: cell-based, human
Experimental: T-cells were isolated from mononuclear cells of healthy donors by T-cell enrichment columns (R&D Systems, Minneapolis, Minn.) according to manufacturer specifications. T-cell purity (CD3+) ranged between 89-95%. The cycle of internalization and re-expression of the TCR-CD3 complex was induced by T-cell stimulation with 1 μg/ml of anti-CD3, 100 ng/ml of anti-CD28 (Becton Dickinson) and 10 μg/ml of goat anti-mouse IgG (KPL, Gaithersburg, Md.). Cells were stimulated in the absence of L-Arg and added to the co-cultures 24 h after stimulation.
as §1
Flow cytometry analysis was performed as previously described. Taheri, F., J. B. Ochoa, Z. Faghiri, K. Culotta, H. J. Park, M. S. Lan, A. H. Zea, and A. C. Ochoa. 2001. […] Fluorescence acquisition and analysis were done using a Coulter-EPICS XL flow cytometer (Beckman-Coulter) with a 488 nm argon laser. The data were expressed as mean channel fluorescence intensity (MFI).

ASE I = test: Western blot for ASE I in PM cytoplasmic extracts; format: cell-based, mice
Experimental: Cytoplasmic extracts from PM, Jurkat cells or T lymphocytes were prepared as previously reported. Taheri, F., J. B. Ochoa, Z. Faghiri, K. Culotta, H. J. Park, M. S. Lan, A. H. Zea, and A. C. Ochoa. 2001. L-Arginine regulates the expression of the T-cell receptor zeta chain (CD3zeta) in Jurkat cells. Clin Cancer Res 7:958s-965s. Briefly, cells were resuspended in lysis buffer (50 mM HEPES, 150 mM NaCl, 5 mM EDTA, 1 mM NaOV4 and 0.5% Triton) containing 50 μg/ml of aprotinin, 50 μg/ml of leupeptin, 100 μg/ml of trypsin-chymotrypsin inhibitor and 2 mM PMSF. Lysates were centrifuged at 3000×g for 10 min at 4° C. Cytoplasmic extracts from Jurkat or T-cells were immunoblotted for CD3ζ and CD3ε. The expression ASE I, ASE II and iNOS was detected by immunoblot using PM extracts. GAPDH was used as housekeeping protein. Cytoplasmic extracts were electrophoresed in 12 or 8% Tris-Glycine gels (Novex, San Diego, Calif.), transferred to PVDF membranes and immunoblotted with the appropriate antibodies. The reactions were detected using the ECL kit (Amersham-Pharmacia).

ASE = ASE activity assay (L-ornithine production) in PM lysates; format: biochemical, mice; details: NOHA 100 μM, Nor-NOHA 50 μM
Experimental: Cell lysates from PM stimulated with IL-4+IL-13 or IFN-γ were tested for ASE activity by measuring the production of L-ornithine. In brief, cell lysates from PM stimulated with IL-4+IL-13 or IFN-γ in the presence or absence of NOHA or Nor-NOHA were added to 50 μl of Tris-HCl (50 mM; pH 7.5) containing 10 mM MnCl2. This mixture was heated at 55-60° C. for 10 min to activate ASE. The hydrolysis reaction from L-Arg to L-ornithine was identified by a colorimetric assay after the addition of ninhydrin solution and incubation at 37° C. for 1 h.

3LL lung carcinoma = test: Anti-tumor effect on 3LL lung carcinoma in C57Bl/6 mice; format: in vivo
Experimental: The anti-tumor effect of arginase inhibitor Nor-NOHA was also measured on these tumor cells. C57Bl/6 mice were injected with one million 3LL lung carcinoma cells on the flank. […] Control mice received normal saline solution. Tumors were measured and the tumor volume was calculated in cubic […]. […] Materials and methods for this example were similar to those described in the above examples.

CAT-2B = CAT-2B mRNA expression in PM (northern blot); format: cell-based, mice
Description: Anti-CD3ε-FITC, anti-CD3ζ-PE (Beckman-Coulter, Miami, Fla.) were used for flow cytometry. Mouse IgG1-FITC and mouse IgG1-PE (Beckman-Coulter) were used as isotype controls. Monoclonal antibodies against CD3ζ (Santa Cruz Biotechnologies, Santa Cruz, Calif.), CD3ε (DAKO, Carpinteria, Calif.), iNOS (Santa Cruz Biotechnologies), ASE I (Transduction-Becton Dickinson) and ASE II (a kind gift of Dr. Sidney Morris Jr) were used for western blots. To test the expression of CAT transporters mRNA, specific amplification products from RT-PCR of CAT-1, CAT-2A, CAT-2B and CAT-3 were purified from agarose gels and used as probes to detect CAT expression by northern blot. Murine full-length cDNA for glyceraldehyde-3 phosphate dehydrogenase (GAPDH) (1.6 Kb) (Clontech, Palo Alto, Calif.) was used as housekeeping control.
Two million PM stimulated with IL-4+IL-13 or IFN-γ were used for RNA extraction using lysis with TRIzol (Invitrogen-Gibco) following the manufacturer's specifications. Four micrograms of total RNA from each sample were electrophoresed under denaturing conditions, blotted onto nytran membranes (Schleicher & Schuell Inc, Keene, N.H.) and cross-linked by UV irradiation. Membranes were pre-hybridized at 42° C. in ULTRAhyb buffer (Ambion, Austin, Tex.) and hybridized overnight with 1×10^6 cpm/mL of ^32P-labeled probe. […]

Molecule | CD3ζ in Jurkat cells co-cultured with PM stimulated with IL-4+IL-13 (Jurkat cells; NOHA 100 μM, Nor-NOHA 50 μM, L-Arg 2 mM, L-NIL 5 μg/ml, catalase 200 U/ml, L-NMMA, L-NNA, L-NAME 1 mM) | extra-cellular L-Arg levels (mean of three experiments) ([1]; Non-stimulated PM) | extra-cellular L-Arg levels (mean of three experiments) ([1]; PM stimulated with IL-4 + IL-13) | rapid decrease in the extra-cellular levels of L-Arg ([1]; PM stimulated with IL-4+IL-13) | CD3ζ in normal stimulated T lymphocytes co-cultured with IL-4+IL-13 activated PM (T lymphocytes) | ASE I up regulation after IL-4+IL-13 stimulation (ASE I; NOHA 100 μM, Nor-NOHA 50 μM) | intracellular ASE activity (ASE) | tumor growth (tumor volume) (3LL lung carcinoma; 20 or 40 mgs/kg subcutaneously, contralateral flank) | tumor growth, comparison of doses (3LL lung carcinoma; 40 mgs/kg, the highest dose tested) | expression of CD3ζ and CD3ε in Jurkat cells co-cultured with cytokine-stimulated PM (Jurkat cells; rIL-4 50 U/ml, rIL-13 50 ng/ml, rIFN-γ 100 U/ml) | change of extra-cellular L-Arg by stimulated PM ([1]; similar to unstimulated PM) | CD3ζ in stimulated T-cells co-cultured with cytokine-stimulated PM (T lymphocytes; transwells) | ASE I expression in PM stimulated with cytokines (ASE I; 24 hours) | CAT-2B mRNA expression in stimulated PM (CAT-2B)
N=C(NO)NCC[C@H](N)C(=O)O [Nor-NOHA, N(omega)-hydroxy-nor-l-arginine] | prevented the decrease of CD3ζ | 109.8 µM | 73.8 µM | partially blocked the rapid decrease | prevented the loss of CD3ζ | did not prevent ASE I up regulation | blocked intracellular ASE activity | significant arrest of tumor growth | most effective |  |  |  |  | 
IFN-γ: murine rIFN-γ (100 U/ml), Th1 cytokine used to stimulate PM (protein, UniProt P01580 23-155, looked up) Interferon gamma: HGTVIESLESLNNYFNSSGIDVEEKSLFLDIWRNWQKDGDMKILQSQIISFYLRLFEVLKDNQAISNNISVIESHLITTFFSNSKAKKDAFMSIAKFEVNNPQVQRQAFNELIRVVHQLLPESSLRKRKRSRC |  |  |  |  |  |  |  |  |  | did not alter CD3ζ or CD3ε expression | moderate decrease in L-Arg | normal cycle of internalization and re-expression of CD3ζ within 48 hours | decrease ASE I expression | no increase in CAT-2B mRNA
